Experiments:
Assay type in all cases: cell-based, human
[1] = test system: HCT-116 cells; test: ABT-263 sensitization, CellTiter Glo cell viability after reverse transfection of miRNA/siRNA; conditions: for sensitization of HCT-116 cells to ABT-263, in words / sensitization of HCT-116 cells to ABT-263 (decrease in cell viability): 1 μM ABT-263, 48 hours; for sensitization of HCT-116 cells to ABT-263, in words: reverse transfection (miRNA 50 nM, siRNA 12.5 nM); for sensitization of HCT-116 cells to ABT-263 (decrease in cell viability): 50 nM miRNA mimic reverse transfected
Experimental: HCT-116 and CHL1 cells were purchased from the American Type Culture Collection (ATCC) and cultured in DMEM (Invitrogen Corp., Grand Island, N.Y.) supplemented with 10% fetal bovine serum (Invitrogen) and 1% penicillin/streptomycin (Invitrogen). All cell lines were maintained in a humidified chamber at 37° C. containing 5% CO2. These cells were authenticated by morphological, cell proliferation and Mycoplasma tests recommended in the ATCC Technical Bulletin no, 8 (2007). Cells were reverse transfected at 1.5−2.5×10^4 cells/[…] in 96-well tissue culture plates. siRNA or miRNA transfection was performed using Lipofectamine 2000 according to manufacturer's instructions (Invitrogen). For Mcl-1 and Bcl-xl siRNA transfections, a final concentration of 12.5 nM siRNA was used. For miRNA transfections, a final concentration of 50 nM miRNA was used. The cells were then grown in medium without antibiotic for 2 days before harvesting. For reporter experiments, 100 ng of pcDNA3-Mcl-1-3′UTR-luciferase reporter construct (21) was included in the liposome complex mix. Forty-eight hours after transfection, cells were assayed for viability using CellTiter Glo Luminescent cell viability assay according to the manufacturer's protocol (Promega). Caspase 3/7 activity was measured using the Caspase-Glo 3/7 assay (Promega). Luciferase activity was measured using the Steady-Glo reagent according to the manufacturer's protocol (Promega).
HCT-116 cells were reverse transfected as described in Example 1 above. Three replica plates were treated with 1 μM ABT-263 in media. […] HCT-116 cells were reverse transfected with sensitizing miRNAs in the presence or absence of 1 μM ABT-263 for 48 hours. Cell viability was measured with CellTiter Glo assay. MiR-29 and miR-125 were used as positive and negative controls for this assay. miRNAs that sensitize HCT-116 cells to ABT-263 by more than 25% are shown. FIG. 1B is a bar graph showing miRNAs that sensitize CHL1 cells to ABT-263. CHL1 cells were reverse transfected with sensitizing miRNAs in the presence or absence of 1 μM ABT-263 for 48 hours. Cell viability was measured with CellTiter Glo assay. Only miRNAs that sensitize HCT-116 cells to ABT-263 by more than 25% were shown. (See FIG. 6 for the complete list of 42 miRNAs). FIG. 1C is a bar graph showing modulation of Mcl-1 protein expression by sensitizing miRNAs in CHL1 cells. CHL1 cells were reverse transfected with sensitizing miRNAs. Mcl-1 expression was measured using a Luminex-based assay as described in the Methods section.
To identify miRNAs that modulate sensitivity of cells to Bcl-2 family inhibitor ABT-263, an miRNA “sensitization” screen was performed using an miRNA mimic library in the presence of ABT-263. The screen was conducted in a colon cancer cell line HCT-116. […] Synthetic miRNA mimics were reverse transfected into HCT-116 cells in the presence or absence of ABT-263 (FIG. 4). Reverse transfection of Mcl-1 siRNA and predicted Mcl-1-targeting miRNAs sensitized HCT-116 cells to 1 μM ABT-263 after 48 hours.
HCT-116 cells were reverse transfected with a library of 810 annotated miRNA mimics in triplicate in the presence of 1 μM ABT-263 (FIG. 5A). Viability of cells was determined after 2 days. […] Z-scores were used to select candidate miRNAs for subsequent experiments. Of 810 miRNA mimics, 80 increased cell death in the presence of ABT-263. Thirty-eight of these 80 miRNAs either reduced cell viability in the absence of ABT-263 (Z←1.5) or represented mimic replicates from the screen, and therefore were not subjected to further testing. The remaining 42 miRNAs were tested in a secondary screen to assess their effect in the presence or absence of ABT-263. MiR-29 and miR-125 were used as control for this screen. […] FIG. 6A identifies miRNAs that sensitize HCT-116 cells to ABT-263. HCT-116 cells were reverse transfected with sensitizing miRNAs in the presence or absence of 1 μM ABT-263 for 48 hours. Cell viability was measured with CellTiter Glo assay. […]

[2] = test system: CHL1 cells; test: as above; conditions: no ABT-263
Experimental: (§1) HCT-116 and CHL1 cells were purchased from the American Type Culture Collection (ATCC) and cultured in DMEM (Invitrogen Corp., Grand Island, N.Y.) supplemented with 10% fetal bovine serum (Invitrogen) and 1% penicillin/streptomycin (Invitrogen). All cell lines were maintained in a humidified chamber at 37° C. containing 5% CO2. These cells were authenticated by morphological, cell proliferation and Mycoplasma tests recommended in the ATCC Technical Bulletin no, 8 (2007). Cells were reverse transfected at 1.5−2.5×10^4 cells/[…] in 96-well tissue culture plates. siRNA or miRNA transfection was performed using Lipofectamine 2000 according to manufacturer's instructions (Invitrogen). […] Caspase 3/7 activity was measured using the Caspase-Glo 3/7 assay (Promega). Luciferase activity was measured using the Steady-Glo reagent according to the manufacturer's protocol (Promega).
HCT-116 cells were reverse transfected as described in Example 1 above. […] Cell viability was measured with CellTiter Glo assay. […] Cell viability was measured with CellTiter Glo assay. […] Mcl-1 expression was measured using a Luminex-based assay as described in the Methods section.
HCT-116 cells were reverse transfected with a library of 810 annotated miRNA mimics in triplicate in the presence of 1 μM ABT-263 (FIG. 5A). Viability of cells was determined after 2 days. […] Cell viability was measured with CellTiter Glo assay. […]

[3] = test system: Mcl-1 3′-UTR; test: Mcl-1 3′-UTR luciferase reporter assay in HCT-116 cells; conditions: HCT-116 cells cotransfected with 100 ng reporter, 48 hours
Experimental: as §1
MiRNA could modulate sensitivity to ABT-263 through several mechanisms: by directly targeting the Mcl-1 gene 3′-UTR and repressing protein translation or by targeting molecules involved in regulating Mcl-1 expression or function. […] Measure was taken of the effect of two Mcl-1 siRNAs and the twelve strongest sensitizing miRNAs on the Mcl-1 protein levels in HCT-116 cells using the Mcl-1 quantitative assay described above. […] Mcl-1 protein expression was measured using the Mcl-1 Luminex assay. […]

[4] = test system: Mcl-1; test: Mcl-1 protein expression, Luminex-based assay, in HCT-116 cells; conditions: 50 nM miRNA or Mcl-1 siRNA, 48 hours
Source text: The present disclosure also provides a method for determining whether an miRNA increases sensitivity of a subject to treatment with a Bcl-2 family inhibitor. The method includes a) reverse transfecting a population of cancer cells with the candidate miRNA; b) contacting the cells with an effective amount of the Bcl-2 family inhibitor, and c) determining Mcl-1 expression level in the cells, wherein a decrease in Mcl-1 expression is indicative that the miRNA increases sensitivity of the subject to treatment with the Bcl-2 family inhibitor. Mcl-1 protein expression can be measured using a liquid phase immunoassay using Luminex beads. In brief, an Mcl-1 capture antibody is conjugated to Luminex beads (bead region 9) and an Mcl-1 detection antibody conjugated to biotin. […] Cell assay buffer is added after filtering and the plate is read using a Luminex 200 station. […]
Mcl-1 protein expression was measured using a new Mcl-1 assay based on the Luminex technology. […] Cell assay buffer was added after filtering and the plate was read using a Luminex 200 station. The liquid-phase quantitative protein assay was used to measure the levels of Mcl-1 in cells. […] Using this new Mcl-1 quantitative assay, the effect of these miRNAs on the Mcl-1 protein levels in CHL1 cells was measured. […]

## CC1(C)CCC(c2ccc(Cl)cc2)=C(CN2CCN(c3ccc(C(=O)NS(=O)(=O)c4ccc(N[C@H](CCN5CCOCC5)CSc5ccccc5)c(S(=O)(=O)C(F)(F)F)c4)cc3)CC2)C1 [ABT-263, N-(4-(4-((2-(4-chlorophenyl)-5,5-dimethyl-1-cyclohex-1-en-1-yl)methyl)pip-erazin-1-yl)benzoyl)-4-(((1R)-3-(morpholin-4-yl)-1-((phenylsulfanyl)methyl-)propyl)amino)-3-((trifluoromethyl)sulfonyl)benzenesulfonamide]
[1]; in the presence of the control siRNA and miRNA
  effect of ABT-263 alone on HCT-116 cell viability: ≤ 25%

## Mcl-1 siRNA: Mcl-1 targeting siRNA, sequence GCATCGAACCATTAGCAGATT (listed as DNA, chemistry not given here)
[1]
  sensitization of HCT-116 cells to ABT-263, in words: significantly sensitize
[1]; no ABT-263
  HCT-116 cell viability after transfection in the absence of ABT-263: would not affect cell viability
[2]
  CHL1 cell viability after transfection in the absence of ABT-263: affected CHL1 cell viability

## miR-29: control miRNA (positive control), sequence UAGCACCAUUUGAAAUCAGUGUU (listed as RNA, chemistry not given here)
[1]
  sensitization of HCT-116 cells to ABT-263, in words: much weaker

## miR-125: control miRNA (negative control), sequence UCCCUGAGACCCUUUAACCUGUGA (listed as RNA, chemistry not given here)
[1]
  sensitization of HCT-116 cells to ABT-263, in words: did not sensitize

## miR-153: sensitizing human miRNA, sequence UUGCAUAGUCACAAAAGUGAUC (listed as RNA, chemistry not given here)
[1]
  sensitization of HCT-116 cells to ABT-263 (decrease in cell viability): ~50%

## miR-193a: sensitizing human miRNA, sequence AACUGGCCUACAAAGUCCCAGU (listed as RNA, chemistry not given here)
[1]
  sensitization of HCT-116 cells to ABT-263 (decrease in cell viability): ~50%

## miR-605: sensitizing human miRNA, sequence UAAAUCCCAUGGUGCCUUCUCCU (listed as RNA, chemistry not given here)
[3]
  luciferase activity of Mcl-1 3′-UTR reporter: did not reduce the luciferase activity
[4]
  Mcl-1 protein expression in HCT-116 cells: affected the Mcl-1 protein expression

## miR-744*: sensitizing human miRNA, sequence CUGUUGCCACUAACCUCAACCU (listed as RNA, chemistry not given here)
[3]
  luciferase activity of Mcl-1 3′-UTR reporter: did not reduce the luciferase activity
[4]
  Mcl-1 protein expression in HCT-116 cells: affected the Mcl-1 protein expression
